According to patent US9211288B2 (priority 2012, dated 2015):
Like-named read-outs stand apart in the source and are kept apart here.

Columns and labels:
[1] = tested on: acetylcholine levels in ventral hippocampus; details: donepezil 1 mg/kg ip and vehicle; compared to vehicle+vehicle
Source text: Adult, male, Wistar rats were used for the experiments. The rats were anesthetized before surgery. Each animal was placed in a stereotaxic frame (Kopf Instruments, USA) and an incision was made on the top of the skull. A microdialysis probe with a 4 mm^2 exposed surface (polyacrylnitril membrane, Brainlink, the Netherlands) was implanted into the ventral hippocampus. […] The probes were attached to the skull with stainless steel screws and dental cement. Experiments started after one day of recovery.
Vortioxetine HBr was prepared in 10% 2-hydroxypropyl-β-cyclodextrin at 0, 5 or 10 mg/ml.
After two hours of prestabilisation, samples (30 μl) were collected and stored in 20 mM formic acid and 0.04% ascorbic acid (10 μl).
The concentration of acetylcholine in the samples was determined by HLPC fitted with tandem mass spectroscopy (MS/MS) for detection using acetyl-β-methyl-choline as internal standard. Chromatographic separation was performed on a reversed phase Phenomenex Synergi Max-RP column (2.0×150 mm, particle size 4 μm) at 50° C. Components were separated using an isocratic flow of eluent A (20 mM ammonium acetate, 5% acetonitril and 0.3% trifluoroacetic acid) at a flow rate of 0.25 ml/min. […]
The average of three pre-administration samples was set to 100%. […] All post-administration samples were expressed as a percentage of basal level within the same subject. […]

[2] = type: in vivo; details: rat
Source text: In addition, blood samples were taken from each animal to measure the plasma level of the active ingredients.

[3] = tested on: acetylcholine levels in hippocampus; test: Microdialysis: acetylcholine levels in ventral hippocampus of freely moving Sprague Dawley rats (Examples 3 and 4); type: in vivo, rat
Source text: Adult, male Sprague Dawley rats were used in the experiments. The rats were anesthetized before surgery. The animals were placed in a stereotaxic frame (Kopf instruments, USA), and CMA12 guide cannulas (CMA Microdialysis, Sweden) were implanted aiming into the ventral hippocampus. Coordinates for the tips of the probes were AP=−5.3 mm to bregma, lateral (ML)=−4.8 mm to midline and ventral=−8.0 mm to dura (Paxinos and Watson).
Galanthamine, the chemical name of which is (4aS,6R,8aS)-4a,5,9,10,11,12-hexahydro-3-methoxy-11-methyl-6H-benzofuro[3a,3,2-ef][2]benzazepin-6-ol, was administered as the HBr salt. Vortioxetine was administered as the HBr salt. Vortioxetine and galantamine were prepared in 0.9% saline. Vortioxetine was administered subcutaneously at 10 mg/kg and galantamine was administered subcutaneously at 0.3 mg/kg and 1.0 mg/kg.
The day before the experiment, a microdialysis probe (CMA/12, 4 mm, PAES, MWKO 100 kDa) was inserted into the respective guide cannula in the awake rats. […] At the day of the experiment, samples were collected in 30 min intervals prior to administration to define the baseline. The data is presented as percentage of baseline within the same animal. Significance is defined as p<0.05. Animals received treatments according to experimental protocol and samples were collected at 30 minutes intervals.
The concentration of acetylcholine in the samples was determined using a Waters Acquity HPLC system equipped with a Sunshell RP-Aqua 2.1×100 mm, 2.6 um particle column fitted with a Waters Quattro Premier XE triple quadrupole mass spectrometer operating in the MS/MS mode. Components were separated using an isocratic flow of eluent A (100 mM ammonium acetate in milliQ water).
Injection of galantamine was 60 minutes prior to the injection of vortioxetine.

[4] = tested on: rats with scopolamine-induced memory impairment; test: Novel object recognition task (NOR) in rats with scopolamine-induced memory impairment (Example 5); type: in vivo, rat
Method: In a habituation phase, rats are allowed to explore the test room environment and two objects which differ in shape, colour and texture. In the test phase, one of the objects is exchanged so that the rats are exposed to one novel object and one familiar object. The time spent exploring the novel and the familiar object is recorded following the administration of test compounds.
Sprague-Dawley rats were used
One day 1 and day 2 of the experiment the rats received two habituation sessions to the test room environment including two objects (familiar objects). Each session lasted 6 minutes. […] At the test day, five groups of rats received a third habituation test (familiarization trial) after which they were removed from the test apparatus and one of the objects was replaced with a novel object. Four hours later, the rats were put back in the test apparatus (test phase) and the time used exploring of the familiar and the novel object was recorded.
The numbers in parenthesis indicate the number of rats in each group

[5] = plasma; cited from earlier work
serotonin transporter [6] = molecular target: T1, serotonin transporter (Rattus norvegicus, UniProt P31652); details: rats; vortioxetine dosed at 5-10 mg/kg; cited from earlier work
T1 construct: The receptor occupancy in rats following administration of vortioxetine has been investigated; host or cells: rat, in vivo / ex vivo occupancy
T1 sequence (P31652 whole entry): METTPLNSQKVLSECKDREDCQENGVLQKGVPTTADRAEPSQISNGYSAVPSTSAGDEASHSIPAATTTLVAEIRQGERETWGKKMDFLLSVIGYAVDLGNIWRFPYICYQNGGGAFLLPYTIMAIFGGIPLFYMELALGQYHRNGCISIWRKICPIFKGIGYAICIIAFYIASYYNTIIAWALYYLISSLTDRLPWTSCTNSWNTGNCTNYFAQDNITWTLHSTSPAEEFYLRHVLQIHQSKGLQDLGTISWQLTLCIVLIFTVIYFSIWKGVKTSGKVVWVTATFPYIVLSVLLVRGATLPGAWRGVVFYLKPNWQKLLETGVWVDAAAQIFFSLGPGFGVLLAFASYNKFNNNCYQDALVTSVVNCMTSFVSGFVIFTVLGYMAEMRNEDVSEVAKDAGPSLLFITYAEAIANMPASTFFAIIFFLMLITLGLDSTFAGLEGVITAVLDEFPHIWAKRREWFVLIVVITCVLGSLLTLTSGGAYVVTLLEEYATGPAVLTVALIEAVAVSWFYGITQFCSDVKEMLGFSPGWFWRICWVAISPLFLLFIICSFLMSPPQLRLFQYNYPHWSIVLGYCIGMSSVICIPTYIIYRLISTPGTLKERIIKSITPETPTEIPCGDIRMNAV

5-HT3-receptor = molecular target: T2, 5-HT3-receptor (Rattus norvegicus, UniProt P35563); details: rats; vortioxetine dosed at 5-10 mg/kg; cited from earlier work
T2 construct: The receptor occupancy in rats following administration of vortioxetine has been investigated; host or cells: rat, in vivo / ex vivo occupancy
T2 sequence (P35563 24-483): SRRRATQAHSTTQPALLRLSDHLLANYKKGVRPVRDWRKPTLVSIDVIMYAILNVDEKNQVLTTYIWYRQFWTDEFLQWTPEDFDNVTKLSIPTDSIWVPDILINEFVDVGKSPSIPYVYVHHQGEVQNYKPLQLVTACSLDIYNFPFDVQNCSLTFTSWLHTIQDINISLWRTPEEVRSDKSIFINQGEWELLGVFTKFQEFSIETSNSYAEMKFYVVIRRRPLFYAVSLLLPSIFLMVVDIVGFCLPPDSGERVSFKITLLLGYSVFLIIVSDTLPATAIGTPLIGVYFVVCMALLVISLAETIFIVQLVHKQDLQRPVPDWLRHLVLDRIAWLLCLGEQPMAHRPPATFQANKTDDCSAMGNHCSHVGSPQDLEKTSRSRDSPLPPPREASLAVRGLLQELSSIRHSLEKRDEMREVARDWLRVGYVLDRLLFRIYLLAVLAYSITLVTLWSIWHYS

5-HT1B-receptor = molecular target: T3, 5-HT1B-receptor (Rattus norvegicus, UniProt P28564); details: rats; vortioxetine dosed at 5-10 mg/kg; cited from earlier work
T3 construct: The receptor occupancy in rats following administration of vortioxetine has been investigated; host or cells: rat, in vivo / ex vivo occupancy
T3 sequence (P28564 whole entry): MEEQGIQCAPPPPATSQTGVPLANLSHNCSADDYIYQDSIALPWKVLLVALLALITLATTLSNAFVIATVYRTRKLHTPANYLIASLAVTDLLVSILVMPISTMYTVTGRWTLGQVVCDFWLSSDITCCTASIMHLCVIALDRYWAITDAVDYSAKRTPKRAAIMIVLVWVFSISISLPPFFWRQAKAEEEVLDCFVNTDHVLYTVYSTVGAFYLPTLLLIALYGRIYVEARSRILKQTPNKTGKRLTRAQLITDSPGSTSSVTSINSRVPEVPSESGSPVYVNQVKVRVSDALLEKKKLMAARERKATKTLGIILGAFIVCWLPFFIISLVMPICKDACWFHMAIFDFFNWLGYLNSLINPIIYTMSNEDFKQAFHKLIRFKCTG

serotonin transporter [7] = molecular target: T4, serotonin transporter (Homo sapiens, UniProt P31645); details: humans, cited from earlier work
T4 construct: The serotonin transporter occupancy in humans was investigated; host or cells: human subjects, in vivo
T4 sequence (P31645 whole entry): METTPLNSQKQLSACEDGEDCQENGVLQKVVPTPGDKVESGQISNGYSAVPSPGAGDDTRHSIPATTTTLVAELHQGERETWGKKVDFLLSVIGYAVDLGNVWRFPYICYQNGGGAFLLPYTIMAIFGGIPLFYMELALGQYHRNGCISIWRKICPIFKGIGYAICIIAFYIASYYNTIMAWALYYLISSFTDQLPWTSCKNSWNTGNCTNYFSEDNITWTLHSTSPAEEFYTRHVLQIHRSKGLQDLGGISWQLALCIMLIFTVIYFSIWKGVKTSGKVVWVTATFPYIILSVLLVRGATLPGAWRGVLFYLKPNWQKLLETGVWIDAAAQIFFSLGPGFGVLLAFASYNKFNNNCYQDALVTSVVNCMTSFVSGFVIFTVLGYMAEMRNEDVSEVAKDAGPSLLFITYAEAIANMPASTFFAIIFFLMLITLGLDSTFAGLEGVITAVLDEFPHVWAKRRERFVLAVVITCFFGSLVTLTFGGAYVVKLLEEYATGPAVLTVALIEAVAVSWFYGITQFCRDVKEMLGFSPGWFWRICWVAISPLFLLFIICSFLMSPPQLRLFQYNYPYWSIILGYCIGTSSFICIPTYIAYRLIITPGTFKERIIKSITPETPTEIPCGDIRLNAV

[8] = tested on: patients suffering from MDD; details: long-term study; cited from earlier work
[9] = tested on: patients with major depressive disorder (MDD); details: cited from earlier work

For COc1cc2c(cc1OC)C(=O)C(CC1CCN(Cc3ccccc3)CC1)C2 (stereo not drawn) [Donepezil], the “acetylcholine levels in ventral hippocampus” value [1] was “significantly increased”.

For Cc1ccc(Sc2ccccc2N2CCNCC2)c(C)c1 [Vortioxetine, 1-[2-(2,4-dimethyl-phenylsulfanyl)-phenyl]-piperazine], the Vortioxetine in plasma ([2]; vortioxetine 10 mg/kg sc + donepezil 0.3 mg/kg ip) was 317 ng/mL, the Vortioxetine in plasma ([2]; vortioxetine 10 mg/kg sc + donepezil 1 mg/kg ip) was 317 ng/mL and the “acetylcholine levels in hippocampus” value ([3]; vortioxetine 10 mg/kg sc) was “significant increase”. For the same compound, the “reversal of scopolamine-induced memory impairment (recognition index, RI)” value ([4]; scopolamine 0.5 mg/kg + vortioxetine 5 mg/kg ip 20 minutes prior to familiarization trial) was “neither vortioxetine at 5 mg/kg nor donepezil at 0.5 mg/kg is able to reverse this impairment”, the half-life in humans [5] was “approximately 57 hours” and the “occupancy at serotonin transporter” value (serotonin transporter [6]) was “almost full occupancy”. The “occupancy at 5-HT3-receptor” value (5-HT3-receptor) was “almost full occupancy”, the “occupancy at 5-HT1B-receptor” value (5-HT1B-receptor) was “almost full occupancy” and the serotonin transporter occupancy (serotonin transporter [7]; 5 mg/day) was 51%. For the same compound, the serotonin transporter occupancy (serotonin transporter [7]; 10 mg/day) was 63%, the serotonin transporter occupancy (serotonin transporter [7]; 20 mg/day) was 90% and the prevention of relapse [8] was “effective in preventing relapse”. For the same compound, the “changes in clinical laboratory results, vital signs, weight, or ECG parameters” value ([9]; human, in vivo) was “no clinically relevant changes” and the “treatment of depressive and anxious symptoms versus placebo” value ([9]; patients with MDD, six weeks) was “separates significantly from placebo”.

For COc1ccc2c3c1O[C@H]1C[C@@H](O)C=C[C@@]31CCN(C)C2 [galantamine, (4aS,6R,8aS)-4a,5,9,10,11,12-hexahydro-3-methoxy-11-methyl-6H-benzofuro[3a,3,2-ef][2]benzazepin-6-ol], the “acetylcholine levels in hippocampus” value ([3]; galantamine 0.3 and 1.0 mg/kg sc and vehicle) was “dose dependent, significant increase”.

With CCN(C)C(=O)Oc1cccc([C@H](C)N(C)C)c1 [rivastigmine, (S)—N-ethyl-N-methyl-3-[1-(dimethylamino)ethyl]-phenyl carbamate] the “acetylcholine levels in hippocampus” value ([3]; rivastigmine 0.2 and 0.6 mg/kg sc and vehicle) was “dose-dependently and significantly increases”.

In the case of CN1[C@@H]2C[C@@H](OC(=O)[C@H](CO)c3ccccc3)C[C@H]1[C@@H]1O[C@@H]12 [scopolamine], the “effect on short-term memory (recognition index, RI)” value ([4]; scopolamine 0.5 mg/kg ip 40 minutes prior to familiarization trial, versus saline, p<0.001) is reported as “impairs short-term memory”.
